Test results reported in patent US20240299334A1, “PHARMACEUTICAL COMPOSITION OF NAPHTHALENE DERIVATIVES AS MULTI-TARGETED THERAPEUTIC AGENTS FOR THE TREATMENT OF ALZHEIMER'S DISEASE” (CENTRO DE NEUROCIENCIAS DE CUBA, CNEURO, priority 2020, published 2024).

Tested on: amnesia induced by the acute administration of scopolamine
Assay: Object discrimination test, intranasal administration, acute ESC
Type: in vivo, mice
Conditions: nasal formulation, single intranasal dose (74 μg/kg); ESC 1.5 mg/kg ip; vs control groups
From the text: Male C57BL/6 mice (20-25 g), supplied by the National Center for the Laboratory Animals Production (CENPALAB, Cuba) were used. The conditions of adaptation and maintenance of the animals before carrying out the experiment were similar to those developed in non-limiting Example 4.
At the end of the adaptation period, the animals were randomly distributed according to their body weights in four experimental groups of 10 animals each: two healthy control groups, one administered with a vehicle via the nasal route (G1) and the other with saline solution via. ip (G2); a sick control group, administered with nasal saline and then, with ESC dissolved in saline solution (1.5 mg/kg, ip) (G3) and a treated group, administered with compound 3 prepared according to the formulation of non-limiting Example 10 and after 15 minutes the ESC is administered (1.5 mg/kg, ip) (G4). This experiment was carried out in two experimental series under the same conditions described in order to study the effects of the nasal formulation of compound 3 in two behavioral models: Y-maze in the hidden arm modality and the object discrimination model. […]
The Object Recognition Test (ORT) is a commonly used behavioral test for the investigation of various aspects of learning and memory, particularly recognition memory, in rodent models of CNS disorders. […] The behavior of the animal was recorded using a video camera. […]

CSC(=S)NCCNC(=O)CCC(=O)Nc1cccc2ccccc12 [compound 3, methyl(2-{[4-(1-naphthylamino)-4-oxobutanoyl]amino}ethyl)dithiocarbamate]
discrimination index (DI) of the novel object: No significant differences were observed in the discrimination index
